US11634425B2, “Pharmaceutical compounds” (priority 2019, dated 2023)
pEC50: −log10 of the molar value.

How the values were obtained:
[1] = Cell cytotoxicity (CC50); format: cell-based; details: human; mean of at least two experiments
Source text: (§1) Compounds were subjected to RSV plaque reduction assays according to the following protocol. Plaque EC50 and cell toxicity CC50 values are a mean of at least two experiments and figures are rounded to whole units.
(§2) Plates were scanned and analysed using the Immunospot S6 Macro analyser, which is equipped with BioSpot analysis software for counting immunostained plaques (virospots). Plaque counts were used to calculate % c infection relative to the mean of the plaque count in the virus control wells for RSV. The EC50 value was calculated as 50% reduction in signal, respectively, by interpolation of inhibition curves fitted with a 4-parameter nonlinear regression with a variable slope in Dotmatics. Plaque EC50 and cell toxicity CC50 values are a mean of at least two experiments and figures are rounded to whole units.

[2] = system: RSV A2; test: RSV plaque reduction assay; format: cell-based, respiratory syncytial virus (RSV); details: human respiratory syncytial virus, HepG2, Hep-G2 cells, mean of at least two experiments
Description: as §1
Hep-G2 cells (ECACC, 85011430) were passaged in flasks and seeded in 24-well plates in DMEM containing antibiotics and supplemented with 10% FBS. During inoculation and subsequent incubation, cells were cultured in DMEM containing 2% FBS. 100 plaque forming unit/well of RSV (RSV A2 ECACC, 0709161v) was mixed with eight serial dilutions of compound. Subsequently, 100 μL of the virus/compound mixtures was added to confluent Hep-G2 cell monolayers. The cells and virus/compound mixtures were incubated at 37° C. in a humidified 5% CO2 incubator for 2 h prior to removal of the inoculum and addition of 1 mL of overlay (DMEM containing 2% FBS and 0.8% CMC) containing compound dilutions. The cells and were incubated at 37° C. in a humidified 5% CO2 incubator for 2 days.
Cells were washed with PBS before adding 75/25% […] EtOH/MeOH, for 3 min. Fixative was removed and plates were washed with PBS. A pre-titrated amount of the primary antibody was added in 200 μL PBS/2% milk powder, and plates incubated for 90 min at 37° C. The plates were washed 3 times with PBS/0.05% Tween20 before addition of rabbit anti-goat horse radish peroxidase in 200 μL PBS/2% milk powder, and incubated for 1 h at 37° C. Following three wash steps with PBS/0.05% Tween20, 200 μL ready-to-use TrueBlue was added and plates were incubated at rt for 10-15 min before washing with water. After removal of water, plates were air-dried in the dark.
as §2

Compound	CC50 [1]	pEC50 [2]
C[C@H]1COCCN1c1ccc(-c2nn3cccnc3c2C(=O)N[C@H]2N=C(c3ccccc3)c3ccccc3NC2=O)cn1 (single isomer, unassigned) [Example 124, 2-(6-[(3S*)-3-methylmorpholin-4-yl]pyridin-3-yl)-N-[(3S)-2-oxo-5-phenyl-2,3-dihydro-1H-1,4-benzodiazepin-3-yl]pyrazolo[1,5-a]pyrimidine-3-carboxamide]	> 25000 nM	7.08
C[C@H]1COCCN1c1ccc(-c2nn3cccnc3c2C(=O)N[C@H]2N=C(c3ccccc3)c3cccc(F)c3NC2=O)cn1 (single isomer, unassigned) [Example 125, N-[(3S)-9-fluoro-2-oxo-5-phenyl-2,3-dihydro-1H-1,4-benzodiazepin-3-yl]-2-{6-[(3S*)-3-methylmorpholin-4-yl]pyridin-3-yl}pyrazolo[1,5-a]pyrimidine-3-carboxamide]	> 25000 nM	7.06
O=C(N[C@H]1N=C(c2ccccc2)c2ccccc2NC1=O)c1c(-c2cc(F)ccc2F)nn2cccnc12 [Example 6, 2-(2,5-Difluorophenyl)-N-[(3S)-2-oxo-5-phenyl-1,3-dihydro-1,4-benzodiazepin-3-yl]pyrazolo[1,5-a]pyrimidine-3-carboxamide]	> 25000 nM	7.03
COc1ccc(F)c(-c2nn3cccnc3c2C(=O)N[C@H]2N=C(c3ccccc3)c3cccc(F)c3NC2=O)c1 [Example 8, 2-(2-Fluoro-5-methoxyphenyl)-N-[(3S)-9-fluoro-2-oxo-5-phenyl-1,3-dihydro-1,4-benzodiazepin-3-yl]pyrazolo[1,5-a]pyrimidine-3-carboxamide]	> 25000 nM	7.27
COc1cccc(-c2nn3cccnc3c2C(=O)N[C@H]2N=C(c3ccccc3)c3cccc(F)c3NC2=O)c1F [Example 9, 2-(2-Fluoro-3-methoxyphenyl)-N-[(3S)-9-fluoro-2-oxo-5-phenyl-1,3-dihydro-1,4-benzodiazepin-3-yl]pyrazolo[1,5-a]pyrimidine-3-carboxamide]	> 25000 nM	7.14
CC(C)Nc1ccc(-c2nn3cccnc3c2C(=O)N[C@H]2N=C(c3ccccc3)c3ccccc3NC2=O)cc1 [Example 13, N-[(3S)-2-Oxo-5-phenyl-1,3-dihydro-1,4-benzodiazepin-3-yl]-2-[4-(propan-2-ylamino)phenyl]pyrazolo[1,5-a]pyrimidine-3-carboxamide]	> 25000 nM	7.03
CC(C)Oc1ccc(-c2nn3cccnc3c2C(=O)N[C@H]2N=C(c3ccccc3)c3ccccc3NC2=O)c(F)c1 [Example 15, 2-(2-Fluoro-4-propan-2-yloxyphenyl)-N-[(3S)-2-oxo-5-phenyl-1,3-dihydro-1,4-benzodiazepin-3-yl]pyrazolo[1,5-a]pyrimidine-3-carboxamide]	> 25000 nM	7.04
Cc1ccn2nc(-c3ccccc3F)c(C(=O)N[C@H]3N=C(c4ccccc4)c4ccccc4NC3=O)c2n1 [Example 22, 2-(2-Fluorophenyl)-5-methyl-N-[(3S)-2-oxo-5-phenyl-1,3-dihydro-1,4-benzodiazepin-3-yl]pyrazolo[1,5-a]pyrimidine-3-carboxamide]	> 25000 nM	7.48
Cc1ccc(F)c(-c2nn3cccnc3c2C(=O)N[C@H]2N=C(c3ccccc3)c3ccccc3NC2=O)c1 [Example 25, 2-(2-Fluoro-5-methylphenyl)-N-[(3S)-2-oxo-5-phenyl-1,3-dihydro-1,4-benzodiazepin-3-yl]pyrazolo[1,5-a]pyrimidine-3-carboxamide]	15400 nM	6.94
Cc1ccc(F)c(-c2nn3cccnc3c2C(=O)N[C@H]2N=C(c3ccccc3)c3cccc(F)c3NC2=O)c1 [Example 26, 2-(2-Fluoro-5-methylphenyl)-N-[(3S)-9-fluoro-2-oxo-5-phenyl-1,3-dihydro-1,4-benzodiazepin-3-yl]pyrazolo[1,5-a]pyrimidine-3-carboxamide]	8770 nM	7.28
O=C(N[C@H]1N=C(c2ccccc2)c2ccccc2NC1=O)c1c(-c2cncc(C3CC3)c2)nn2cccnc12 [Example 31, 2-(5-Cyclopropylpyridin-3-yl)-N-[(3S)-2-oxo-5-phenyl-1,3-dihydro-1,4-benzodiazepin-3-yl]pyrazolo[1,5-a]pyrimidine-3-carboxamide]	> 25000 nM	7.02
Cc1cnc2c(C(=O)N[C@H]3N=C(c4ccccc4)c4ccccc4NC3=O)c(-c3ccccc3F)nn2c1 [Example 33, 2-(2-Fluorophenyl)-6-methyl-N-[(3S)-2-oxo-5-phenyl-1,3-dihydro-1,4-benzodiazepin-3-yl]pyrazolo[1,5-a]pyrimidine-3-carboxamide]	> 25000 nM	7.54
Cc1ccn2nc(-c3ccc(F)cc3F)c(C(=O)N[C@H]3N=C(c4ccccc4)c4ccccc4NC3=O)c2n1 [Example 35, 2-(2,4-Difluorophenyl)-5-methyl-N-[(3S)-2-oxo-5-phenyl-1,3-dihydro-1,4-benzodiazepin-3-yl]pyrazolo[1,5-a]pyrimidine-3-carboxamide]	> 25000 nM	7.54
O=C(N[C@H]1N=C(c2ccccc2)c2cccc(F)c2NC1=O)c1c(-c2ccccc2F)nn2ccc(N3CCCC3)nc12 [Example 40, N-[(3S)-9-Fluoro-2-oxo-5-phenyl-1,3-dihydro-1,4-benzodiazepin-3-yl]-2-(2-fluorophenyl)-5-pyrrolidin-1-ylpyrazolo[1,5-a]pyrimidine-3-carboxamide]	> 25000 nM	7.29
O=C(N[C@H]1N=C(c2ccccc2)c2ccccc2NC1=O)c1c(-c2ccccc2F)nn2ccc(N3CCCC3)nc12 [Example 41, 2-(2-Fluorophenyl)-N-[(3S)-2-oxo-5-phenyl-1,3-dihydro-1,4-benzodiazepin-3-yl]-5-pyrrolidin-1-ylpyrazolo[1,5-a]pyrimidine-3-carboxamide]	> 25000 nM	7.10
O=C(N[C@H]1N=C(c2ccccc2)c2ccccc2NC1=O)c1c(-c2ccc(N3CCCC3)cc2F)nn2cccnc12 [Example 45, 2-(2-Fluoro-4-pyrrolidin-1-ylphenyl)-N-[(3S)-2-oxo-5-phenyl-1,3-dihydro-1,4-benzodiazepin-3-yl]pyrazolo[1,5-a]pyrimidine-3-carboxamide]	> 25000 nM	6.99
Cc1ccc2nc(-c3cncc(C(F)(F)F)c3)c(C(=O)N[C@H]3N=C(c4ccccc4)c4ccccc4NC3=O)n2n1 [Example 46, 6-Methyl-N-[(3S)-2-oxo-5-phenyl-1,3-dihydro-1,4-benzodiazepin-3-yl]-2-[5-(trifluoromethyl)pyridin-3-yl]imidazo[1,2-b]pyridazine-3-carboxamide]	> 25000 nM	7.03
Cc1ccc2nc(-c3cncc(C(F)(F)F)c3)c(C(=O)N[C@H]3N=C(c4ccccc4)c4cccc(F)c4NC3=O)n2n1 [Example 47, N-[(3S)-9-fluoro-2-oxo-5-phenyl-1,3-dihydro-1,4-benzodiazepin-3-yl]-6-methyl-2-[5-(trifluoromethyl)pyridin-3-yl]imidazo[1,2-b]pyridazine-3-carboxamide]	> 25000 nM	7.00
Cc1ccc(-c2nn3cccnc3c2C(=O)N[C@H]2N=C(c3ccccc3)c3ccccc3NC2=O)cn1 [Example 49, 2-(6-Methylpyridin-3-yl)-N-[(3S)-2-oxo-5-phenyl-1,3-dihydro-1,4-benzodiazepin-3-yl]pyrazolo[1,5-a]pyrimidine-3-carboxamide]	> 25000 nM	7.00
